41 compounds from patent US9309242B2, “Substituted pyrido[2,3-b]pyrazines as FGFR kinase inhibitors” (priority 2011, dated 2016) can be followed below.

The target in assay [1] is FGFR4 (h) (Homo sapiens, UniProt P22455). In words: FGFR4 (enzymatic assay), TR-FRET. The assay is classed as biochemical. Particulars: FGFR 4 pIC50, enzymatic assay. (In general: TR-FRET usually uses a lanthanide donor and a delayed reading to cut background.)
The test system of assay [2] is Ba/F3-FGFR3-transfected cells. In words: Ba/F3-FGFR3 (plus IL3) cellular proliferation assay, counterscreen with 10 ng/ml murine IL3. It counts as cell-based. The settings on record: plus IL3 (10 ng/ml murine IL3, counterscreen); read-out: BAF3-FGFR3 (PLUS IL3) pIC50 (converted). The method in brief: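 Viability readout was resazurin reduction (ex 540/em 590 nm) after 4 h, following 24 h compound treatment at 37 °C of FGFR3-transfected Ba/F3 cells (20000/well, RPMI-1640/10% FBS). IL3-dependent counterscreen used identical conditions plus 10 ng/ml murine IL3.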

Assay [3] concerns the target KDR (h) (Homo sapiens, UniProt P35968). Kind of assay: KDR (VEGFR2) (enzymatic assay), TR-FRET. The assay is classed as biochemical. The settings on record: read-out: VEGFR 2 (KDR) pIC50 (converted). The method in brief: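 Low-ATP (3 μM) TR-FRET kinase assay using 500 nM Btn-Flt3 peptide and 150 ng/ml enzyme, run 2 h at room temperature with 6 mM MnCl2 and 0.1 mM Na3VO4. Signal from Eu-anti-P-Tyr/SA-XL-665 is recorded in RFU.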

FGFR4 (h), sequence (P22455 22-802): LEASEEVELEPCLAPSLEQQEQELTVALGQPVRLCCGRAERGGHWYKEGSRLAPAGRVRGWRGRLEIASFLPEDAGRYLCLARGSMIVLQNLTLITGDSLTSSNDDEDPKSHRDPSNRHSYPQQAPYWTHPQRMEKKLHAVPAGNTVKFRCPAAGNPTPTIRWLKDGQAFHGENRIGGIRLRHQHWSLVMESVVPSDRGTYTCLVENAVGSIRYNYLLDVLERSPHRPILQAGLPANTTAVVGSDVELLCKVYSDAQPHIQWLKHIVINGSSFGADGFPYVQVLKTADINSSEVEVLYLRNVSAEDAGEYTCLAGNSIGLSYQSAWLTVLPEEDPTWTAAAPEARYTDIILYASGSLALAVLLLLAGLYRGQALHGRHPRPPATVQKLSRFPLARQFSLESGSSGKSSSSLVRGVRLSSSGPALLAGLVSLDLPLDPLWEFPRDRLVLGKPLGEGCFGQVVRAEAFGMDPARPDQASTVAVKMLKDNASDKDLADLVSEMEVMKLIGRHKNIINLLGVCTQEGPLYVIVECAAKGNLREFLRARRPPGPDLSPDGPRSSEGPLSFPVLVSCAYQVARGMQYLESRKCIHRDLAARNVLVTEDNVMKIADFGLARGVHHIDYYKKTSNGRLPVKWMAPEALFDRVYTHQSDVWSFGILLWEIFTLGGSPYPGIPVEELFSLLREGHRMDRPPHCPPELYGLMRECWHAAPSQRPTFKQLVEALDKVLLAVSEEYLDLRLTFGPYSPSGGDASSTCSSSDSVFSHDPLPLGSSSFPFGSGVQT
KDR (h), sequence (P35968 20-1356): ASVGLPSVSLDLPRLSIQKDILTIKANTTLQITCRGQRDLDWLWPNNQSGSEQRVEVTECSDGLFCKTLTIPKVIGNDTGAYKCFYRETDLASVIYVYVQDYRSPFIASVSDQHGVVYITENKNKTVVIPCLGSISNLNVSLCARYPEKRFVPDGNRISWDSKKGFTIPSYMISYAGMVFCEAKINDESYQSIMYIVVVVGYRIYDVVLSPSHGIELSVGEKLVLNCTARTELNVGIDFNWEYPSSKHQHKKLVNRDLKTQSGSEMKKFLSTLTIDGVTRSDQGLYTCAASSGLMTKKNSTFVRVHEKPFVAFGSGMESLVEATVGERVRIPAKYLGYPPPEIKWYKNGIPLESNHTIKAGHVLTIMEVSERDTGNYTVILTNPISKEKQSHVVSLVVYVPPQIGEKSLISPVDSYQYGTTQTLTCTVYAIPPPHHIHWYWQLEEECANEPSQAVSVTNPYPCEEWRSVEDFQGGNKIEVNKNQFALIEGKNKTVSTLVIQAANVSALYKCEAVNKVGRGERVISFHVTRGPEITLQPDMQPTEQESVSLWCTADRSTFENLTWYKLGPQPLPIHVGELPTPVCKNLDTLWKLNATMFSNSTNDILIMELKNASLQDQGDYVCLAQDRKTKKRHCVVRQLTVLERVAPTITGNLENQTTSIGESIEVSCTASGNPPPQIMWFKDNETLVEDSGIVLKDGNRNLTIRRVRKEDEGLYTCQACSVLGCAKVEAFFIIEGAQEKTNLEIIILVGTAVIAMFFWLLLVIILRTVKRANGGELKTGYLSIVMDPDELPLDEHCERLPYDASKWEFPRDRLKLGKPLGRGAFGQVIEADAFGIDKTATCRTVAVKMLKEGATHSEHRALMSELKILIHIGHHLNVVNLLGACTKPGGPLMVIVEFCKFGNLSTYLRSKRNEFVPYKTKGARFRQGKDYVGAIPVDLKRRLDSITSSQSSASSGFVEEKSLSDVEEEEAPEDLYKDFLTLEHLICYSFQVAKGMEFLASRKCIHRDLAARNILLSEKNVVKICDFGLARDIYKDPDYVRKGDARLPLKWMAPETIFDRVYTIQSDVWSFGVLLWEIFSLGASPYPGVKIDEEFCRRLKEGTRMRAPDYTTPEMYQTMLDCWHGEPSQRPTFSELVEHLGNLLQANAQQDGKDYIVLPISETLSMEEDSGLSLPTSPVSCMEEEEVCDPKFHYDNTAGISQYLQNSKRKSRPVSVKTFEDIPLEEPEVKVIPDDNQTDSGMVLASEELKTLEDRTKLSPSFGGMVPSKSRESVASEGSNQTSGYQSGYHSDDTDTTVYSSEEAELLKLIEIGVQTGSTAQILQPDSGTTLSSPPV

As to `COc1cc(OC)c(F)c(N(Cc2ncc[nH]2)c2ccc3ncc(-c4ccncc4)nc3n2)c1` [Compound 211], the IC50 in assay [1] is 2.29 nM; in assay [2], over 10000 nM; in assay [3], 36.3 nM.

Regarding `COC(=O)CN(c1ccc2ncc(-c3cnn(C)c3)nc2n1)c1cc(OC)cc(OC)c1F` [Compound 214], the figures for the IC50 in assay [1], in assay [2] and in assay [3] were 11.2 nM, over 10000 nM and 145 nM, respectively.

Consider `COc1cc(OC)c(F)c(N(Cc2ncc[nH]2)c2ccc3ncc(-c4cn[nH]c4)nc3n2)c1` [Compound 190], for which the figures for the IC50 in assay [1], in assay [2] and in assay [3] were 1.12 nM, over 10000 nM and 7.94 nM, respectively.

Turning to `COc1cc(OC)cc(N(CCN2CCOCC2)c2ccc3ncc(-c4cnn(C)c4)nc3n2)c1` [Compound 146], the values for the IC50 in assay [1], in assay [2] and in assay [3] were 17.8 nM, over 10000 nM and 41.7 nM, respectively.

Regarding `COc1cc(OC)cc(N(CCN2CCCC2=O)c2ccc3ncc(-c4cnn(C)c4)nc3n2)c1` [Compound 151], the IC50 in assay [1] is 91.2 nM; in assay [2], over 10000 nM; in assay [3] it was 126 nM.

In the case of `COc1cc(OC)c(F)c(N(Cc2nccn2CCO)c2ccc3ncc(-c4cnn(C)c4)nc3n2)c1` [Compound 145], the values for the IC50 in assay [1], in assay [2] and in assay [3] were 10.5 nM, over 10000 nM and 25.7 nM, respectively.

As for `COc1cc(OC)c(F)c(N(Cc2nc(OC)cc(OC)n2)c2ccc3ncc(-c4cnn(C)c4)nc3n2)c1` [Compound 220], the IC50 is 29.5 nM in assay [1], over 10000 nM in assay [2] and 50.1 nM in assay [3].

`COc1cc(OC)c(F)c(N(Cc2cnn(C)c2)c2ccc3ncc(-c4cnn(C)c4)nc3n2)c1` [Compound 195]: the IC50 in assay [1] was 0.871 nM; in assay [2], over 10000 nM; in assay [3], 11.5 nM.

Consider `COc1cc(OC)c(F)c(N(Cc2nc(CO)c[nH]2)c2ccc3ncc(-c4cnn(C)c4)nc3n2)c1` [Compound 232], for which the results for the IC50 in assay [1], in assay [2] and in assay [3] were 1.86 nM, over 10000 nM and 22.4 nM, respectively.

For the compound `CCOCc1c[nH]c(CN(c2ccc3ncc(-c4cnn(C)c4)nc3n2)c2cc(OC)cc(OC)c2F)n1` [Compound 206], the IC50 in assay [1] is 2.95 nM; in assay [2] it was over 10000 nM; in assay [3], 27.5 nM.

Consider `COc1cc(/N=c2\ccc3ncc(-c4cnn(C)c4)nc3n2CCN)c(F)c(OC)c1` [Compound 167], for which the results for the IC50 in assay [1], in assay [2] and in assay [3] were 4.17 nM, over 10000 nM and 16.2 nM, respectively.

For `COc1cc(OC)c(F)c(N(CCNC(C)=O)c2ccc3ncc(-c4cnn(C)c4)nc3n2)c1` [Compound 242], the IC50 in assay [1] is 2.24 nM; in assay [2], over 10000 nM; in assay [3], 28.2 nM.

As for `COc1cc(OC)c(F)c(N(Cc2cc(C)no2)c2ccc3ncc(-c4cnn(C)c4)nc3n2)c1` [Compound 185], the IC50 in assay [1] was 0.977 nM; in assay [2] it was over 10000 nM; in assay [3], 17.8 nM.

As for `COc1cc(OC)c(F)c(N(CCN2CCCC2=O)c2ccc3ncc(-c4cnn(C)c4)nc3n2)c1` [Compound 157], the figures for the IC50 in assay [1], in assay [2] and in assay [3] were 26.3 nM, over 10000 nM and 46.8 nM, respectively.

Take `COc1cc(/N=c2\ccc3ncc(-c4cnn(C)c4)nc3n2CC2CCCOC2)cc(OC)c1` (stereo not drawn) [Compound 165]: the IC50 in assay [1] is 2.04 nM; in assay [2] it was over 10000 nM; in assay [3] it was 6.31 nM.

In the case of `COc1cc(OC)c(F)c(N(CC(=O)c2cnn(C)c2)c2ccc3ncc(-c4cnn(C)c4)nc3n2)c1` [Compound 225], the IC50 in assay [1] is 36.3 nM; in assay [2], over 10000 nM; in assay [3], 200 nM.

As for `COc1cc(OC)c(F)c(N(Cc2ncc[nH]2)c2ccc3ncc(-c4ccccc4)nc3n2)c1` [Compound 200], the IC50 in assay [1] was 1.48 nM; in assay [2] it was over 10000 nM; in assay [3], about 9.55 nM.

Turning to `COc1cc(/N=c2\ccc3ncc(-c4cnn(C)c4)nc3n2CCN2CCOCC2)c(F)c(OC)c1` [Compound 148], the IC50 was 1.62 nM in assay [1], over 10000 nM in assay [2] and 5.01 nM in assay [3].

`COc1cc(OC)cc(N(Cc2ncc[nH]2)c2ccc3ncc(-c4cn[nH]c4)nc3n2)c1` [Compound 141]: the IC50 in assay [1] was 0.603 nM; in assay [2], over 10000 nM; in assay [3] it was 12 nM.

Regarding `Cn1cc(-c2cnc3ccc(N(Cc4ncc[nH]4)c4c(F)c(F)cc(F)c4F)nc3n2)cn1` [Compound 175], the IC50 in assay [1] was 4.79 nM; in assay [2], over 10000 nM; in assay [3] it was 219 nM.

As for `COc1cc(OC)c(F)c(N(CC2CCOC2)c2ccc3ncc(-c4cnn(C)c4)nc3n2)c1` (single isomer, unassigned) [Compound 170], the IC50 in assay [1] is 4.9 nM; in assay [2], over 10000 nM; in assay [3] it was 13.5 nM.

In the case of `COc1cc(OC)cc(N(Cc2ncc[nH]2)c2ccc3ncc(-c4cnn(C5CCNCC5)c4)nc3n2)c1` [Compound 227], the values for the IC50 in assay [1], in assay [2] and in assay [3] were 1.82 nM, over 10000 nM and 12 nM, respectively.

With `COc1cc(/N=c2\ccc3ncc(-c4cnn(C)c4)nc3n2Cc2cn[nH]c2)c(F)c(OC)c1` [Compound 155], the results for the IC50 in assay [1], in assay [2] and in assay [3] were 0.324 nM, over 10000 nM and 2.45 nM, respectively.

As to `COc1cc(/N=c2\ccc3ncc(-c4cnn(C)c4)nc3n2Cc2c(C)noc2C)c(F)c(OC)c1` [Compound 179], the IC50 was 3.47 nM in assay [1], over 3020 nM in assay [2] and 12.3 nM in assay [3].

On to `COc1cc(OC)cc(N(Cc2nn[nH]n2)c2ccc3ncc(-c4cnn(C)c4)nc3n2)c1` [Compound 197], for which the values for the IC50 in assay [1], in assay [2] and in assay [3] were 34.7 nM, over 10000 nM and 145 nM, respectively.

`COc1cc(OC)cc(N(Cc2ncc[nH]2)c2ccc3ncc(-c4ccncc4)nc3n2)c1` [Compound 202]: the IC50 was 2.82 nM in assay [1], over 10000 nM in assay [2] and 61.7 nM in assay [3].

As for `COc1cc(OC)c(F)c(N(CCN2CCOCC2)c2ccc3ncc(-c4cnn(C)c4)nc3n2)c1` [Compound 149], the figures for the IC50 in assay [1], in assay [2] and in assay [3] were 5.13 nM, over 10000 nM and 15.5 nM, respectively.

On to `COc1cc(OC)cc(N(Cc2ncc[nH]2)c2ccc3ncc(-c4ccccc4)nc3n2)c1` [Compound 152], for which the IC50 in assay [1] was 1.41 nM; in assay [2], over 10000 nM; in assay [3], 15.1 nM.

In the case of `COc1cc(OC)c(F)c(N(CCN(C2COC2)C2COC2)c2ccc3ncc(-c4cnn(C)c4)nc3n2)c1` [Compound 222], the IC50 in assay [1] was 15.5 nM; in assay [2], over 10000 nM; in assay [3], 40.7 nM.

For the compound `COc1cc(/N=c2\ccc3ncc(-c4cnn(C)c4)nc3n2CCN2CCOCC2)cc(OC)c1` [Compound 147], the IC50 in assay [1] was 3.24 nM; in assay [2], over 10000 nM; in assay [3], 5.62 nM.

With `COc1cc(/N=c2\ccc3ncc(-c4cnn(C)c4)nc3n2CC2CCC(=O)N2CCO)c(F)c(OC)c1` (single isomer, unassigned) [Compound 219], the figures for the IC50 in assay [1], in assay [2] and in assay [3] were 1.91 nM, over 10000 nM and 7.94 nM, respectively.

For `COc1cc(OC)c(F)c(N(Cc2ncc[nH]2)c2ccc3ncc(-c4cnn(CC(C)(C)O)c4)nc3n2)c1` [Compound 240], the values for the IC50 in assay [1], in assay [2] and in assay [3] were 1.91 nM, over 10000 nM and 15.5 nM, respectively.

As to `COc1cc(/N=c2\ccc3ncc(-c4cnn(C)c4)nc3n2CC2CCC(=O)N2C)c(F)c(OC)c1` (stereo not drawn) [Compound 158], the IC50 was 2.51 nM in assay [1], over 10000 nM in assay [2] and 6.61 nM in assay [3].

On to `COc1ccc(Cl)c(N(CC2CCC(=O)N2)c2ccc3ncc(-c4cnn(C)c4)nc3n2)c1Cl` (single isomer, unassigned) [Compound 90], for which the IC50 in assay [1] is about 912 nM; in assay [2], over 10000 nM; in assay [3], over 1000 nM.

For the compound `COc1cc(OC)c(F)c(N(Cc2cc(C)on2)c2ccc3ncc(-c4cnn(C)c4)nc3n2)c1` [Compound 180], the IC50 is 1.66 nM in assay [1], over 10000 nM in assay [2] and 9.55 nM in assay [3].

`COc1cc(OC)cc(N(Cc2ncc[nH]2)c2ccc3ncc(-c4cccnc4)nc3n2)c1` [Compound 182]: the IC50 in assay [1] is 2.34 nM; in assay [2], over 10000 nM; in assay [3], 64.6 nM.

In the case of `COc1cc(OC)cc(N(CCO)c2ccc3ncc(-c4ccncc4)nc3n2)c1` [Compound 213], the results for the IC50 in assay [1], in assay [2] and in assay [3] were 25.1 nM, over 10000 nM and 245 nM, respectively.

In the case of `COc1cc(OC)cc(N(Cc2ncn(CCO)n2)c2ccc3ncc(-c4cnn(C)c4)nc3n2)c1` [Compound 205], the IC50 was 47.9 nM in assay [1], over 10000 nM in assay [2] and 38.9 nM in assay [3].

Take `COc1cc(OC)c(F)c(N(CC2COC2)c2ccc3ncc(-c4cnn(C)c4)nc3n2)c1` [Compound 144]: the IC50 in assay [1] was 5.25 nM; in assay [2], over 10000 nM; in assay [3], 22.9 nM.

Turning to `COc1cc(OC)c(F)c(N(CCN(C2COC2)C2COC2)c2ccc3ncc(-c4cnn(C)c4)nc3n2)c1F` (single isomer, unassigned) [Compound 163], the IC50 in assay [1] was 3.24 nM; in assay [2], over 10000 nM; in assay [3], 8.51 nM.

Take `COc1cc(OC)c(F)c(N(Cc2ncc[nH]2)c2ccc3ncc(N4CCOCC4)nc3n2)c1F` [Compound 215]: the results for the IC50 in assay [1], in assay [2] and in assay [3] were 2.14 nM, over 10000 nM and 52.5 nM, respectively.
